# Data reported in patent US11505533B2, “Metabolically stable N-acylaminooxadiazoles useful as antibacterial agents” (MICROBIOTIX, INC., priority 2017, dated 2022).
# Test system: E. coli TolC(−)
# Experiment: TolC(−) MIC (NB)
# Format: cell-based
# Conditions: Escherichia coli, read-out: TolC(−) MIC (μM)(NB)
row,Compound,MIC
1,CC1=C(C)CN(C(=O)Nc2nnc(-c3ccc(F)cc3)o2)CC1 [compound 4738],7 µM
2,CN1CCCN(C(=O)Nc2nnc(-c3ccc(F)cc3)o2)CC1 [compound 4349],≥ 100 µM
3,O=C(Nc1nnc(-c2ccc(F)cc2)o1)N1Cc2ncsc2C1 [compound 4497],≥ 100 µM
4,O=C(Nc1nnc(-c2ccc(F)cc2)o1)N1CCC2(CC1)COC2 [compound 4739],100 µM
5,O=C(Nc1nnc(-c2ccc(F)cc2)o1)N1CCc2sccc2C1 [compound 4940],3.13 µM
6,O=C(Nc1nnc(-c2ccc(F)cc2)o1)N1CCN(c2ncccn2)CC1 [compound 4465],6.25 µM
7,O=C(Nc1nnc(C2CCCCC2)o1)c1ccc(OC2CCCCC2)nc1 [compound 4925],1.56 µM
8,CCOC1CCN(C(=O)Nc2nnc(-c3ccc(F)cc3)o2)CC1 [compound 4993],44.5 µM
9,O=C(Nc1nnc(-c2ccc(F)cc2)o1)N1CCC(O)CC1 [compound 4734],100 µM
10,O=C(Nc1nnc(Cc2ccc(F)cc2)o1)c1ccc(Oc2ccccc2)nc1 [compound 4802],6.25 µM
11,COC(=O)c1ccc(CC2CCN(C(=O)Nc3nnc(-c4ccc(F)cc4)o3)CC2)cc1 [compound 4779],12.5 µM
12,O=C(Nc1nnc(-c2ccc(F)cc2)o1)N1CCCCC1 [compound 4699],25 µM
13,O=C(Nc1nnc(-c2ccc(F)cc2)o1)N1CCOCC1 [compound 4697],100 µM
14,O=C(Nc1nnc(-c2ccc(F)cc2)o1)N1CCC(F)(F)CC1 [compound 4686],12.5 µM
15,Cc1cc(F)cc(C)c1-c1nnc(NC(=O)N2CCC(Cl)=C(Cl)C2)o1 [compound 5203],0.781 µM
16,COc1cccc(Oc2ccc(C(=O)Nc3nnc(-c4ccc(F)cc4)o3)cc2)c1 [compound 4309],0.984 µM
17,CC1(C)CCCN(C(=O)Nc2nnc(-c3ccc(F)cc3)o2)CC1 [compound 4922],12.5 µM
18,O=C(Nc1nnc(-c2ccc(F)cc2)o1)N1CCCC2CCCCC21 (centres unmarked) [compound 4200],50 µM
19,Cc1ccc(Oc2ccc(C(=O)Nc3nnc(-c4ccc(F)cc4)o3)cc2)cc1 [compound 4305],0.781 µM
20,O=C(Nc1nnc(-c2ccc(F)cc2)o1)N1CCCC(O)C1 (centres unmarked) [compound 5201],> 100 µM
21,O=C(Nc1nnc(-c2ccc(F)cc2)o1)N1CC2CC(C1)O2 [compound 4380],≥ 100 µM

row,Compound,MIC
1,O=C(Nc1nnc(-c2ccc(F)cc2)o1)N1CCC(N2CCCCC2)CC1 [compound 4702],> 100 µM
2,COC(=O)c1ccc(OC2CCN(C(=O)Nc3nnc(-c4ccc(F)cc4)o3)CC2)cc1 [compound 4778],19.8 µM
3,O=C1CN(C(=O)Nc2nnc(-c3ccc(F)cc3)o2)CCN1 [compound 4350],≥ 100 µM
4,COC(=O)C1CCN(C(=O)Nc2nnc(-c3ccc(F)cc3)o2)CC1 [compound 4701],50 µM
5,O=C(Nc1nnc(-c2ccc(F)cc2)o1)N1CC(C(F)F)C2(CC2)C1 (centres unmarked) [compound 4932],17.7 µM
6,COc1cc2c(cc1OC)CN(C(=O)Nc1nnc(-c3ccc(F)cc3)o1)CC2 [compound 4333],12.5 µM
7,CC(C)(C)C1CCCN(C(=O)Nc2nnc(-c3ccc(F)cc3)o2)CC1 (centres unmarked) [compound 4937],11.1 µM
8,O=C(Nc1nnc(-c2ccc(F)cc2)o1)c1ccc(Oc2ccccc2)cn1 [compound 4258],35.4 µM
9,CC(Oc1ccc(C(=O)Nc2nnc(-c3ccc(F)cc3)o2)cc1)c1ccccc1 (centres unmarked) [compound 4357],1.56 µM
10,CC1CCCN(C(=O)Nc2nnc(-c3ccc(F)cc3)o2)C1 (centres unmarked) [compound 4767],11.1 µM
11,O=C(Nc1nnc(-c2ccc(F)cc2)o1)N1CCC2(CCCC2)CC1 [compound 4939],6.25 µM
12,Cc1ccccc1-c1nnc(NC(=O)N2CCc3ccccc3C2)o1 [compound 5214],7.02 µM
13,O=C(Nc1nnc(C2COc3ccccc3O2)o1)c1ccc(Oc2ccccc2)nc1 (centres unmarked) [compound 4770],4.42 µM
14,O=C(Nc1nnc(-c2ccc(F)cc2)o1)N1CCC(C(F)(F)F)C1 (centres unmarked) [compound 4735],22.3 µM
15,O=C(Nc1nnc(C2COc3ccccc3O2)o1)c1ccc(OC2CCCCC2)nc1 (centres unmarked) [compound 4926],1.56 µM
16,O=C(Nc1nnc(-c2ccc(F)cc2)o1)N1CCN2CCCCC2C1 (centres unmarked) [compound 4199],≥ 100 µM
17,O=C(Nc1nnc(-c2ccc(F)cc2)o1)N1CCC(Nc2ccccc2)CC1 [compound 4741],11.1 µM
18,O=C(Nc1nnc(-c2ccc(F)cc2)o1)N1CC2CCC(C1)O2 [compound 4381],100 µM
19,CC(C)(C)COc1ccc(C(=O)Nc2nnc(-c3ccc(F)cc3)o2)cc1 [compound 4284],70.7 µM
20,CC(C)C1CCCN(C(=O)Nc2nnc(-c3ccc(F)cc3)o2)C1 (centres unmarked) [compound 5212],7.02 µM
21,CC(C)OC1CCN(C(=O)Nc2nnc(-c3ccc(F)cc3)o2)CC1 [compound 4994],44.5 µM

row,Compound,MIC
1,O=C(Nc1nnc(-c2ccc(F)cc2)o1)N1CCC(c2ccccc2)CC1 [compound 5199],5.57 µM
2,C[C@@H]1CCCN(C(=O)Nc2nnc(-c3ccc(F)cc3)o2)C1 [compound 5200],12.5 µM
3,O=C(Nc1nnc(-c2ccc(F)cc2)o1)N1CCC2(C1)CC2(F)F (centres unmarked) [compound 4931],28.1 µM
4,O=C(Nc1nnc(-c2ccc3c(c2)CCC3)o1)N1CC=C(C(F)(F)F)CC1 [compound 5155],1.97 µM
5,O=C(Nc1nnc(-c2ccc3c(c2)CCC3)o1)N1CCC(Cl)=C(Cl)C1 [compound 5154],1.75 µM
6,O=C(Nc1nnc(-c2ccc(N3CCCC3)cc2)o1)N1CC=C(C(F)(F)F)CC1 [compound 5223],11.1 µM
7,CC(C)(C)OC1CCN(C(=O)Nc2nnc(-c3ccc(F)cc3)o2)CC1 [compound 4995],25 µM
8,CCCC1CCN(C(=O)Nc2nnc(-c3ccc(F)cc3)o2)CC1 [compound 4934],6.25 µM
9,COCCN1[C@H](C)CN(C(=O)Nc2nnc(-c3ccc(F)cc3)o2)C[C@@H]1C [compound 4406],50 µM
10,CC(C)(C)OC(=O)N1CCC(Oc2ccc(C(=O)Nc3nnc(-c4ccc(F)cc4)o3)cc2)CC1 [compound 4289],3.51 µM
11,O=C(Nc1nnc(-c2ccc(F)cc2)o1)N1CCCC1 [compound 4346],100 µM
12,CC(=O)N1CCN(C(=O)Nc2nnc(-c3ccc(F)cc3)o2)CC1 [compound 4198],≥ 100 µM
13,Cc1cc(F)cc(C)c1-c1nnc(NC(=O)N2CC=C(C(F)(F)F)CC2)o1 [compound 5204],4.96 µM
14,Cc1ccccc1-c1nnc(NC(=O)c2ccc(Oc3ccccc3)nc2)o1 [compound 4498],2.21 µM
15,O=C(Nc1nnc(-c2ccc(N3CCCC3)cc2)o1)N1CCc2ccccc2C1 [compound 5222],25 µM
16,COC(=O)C1=CCN(C(=O)Nc2nnc(-c3ccc(F)cc3)o2)CC1 [compound 4348],12.5 µM
17,O=C(Nc1nnc(-c2ccc(F)cc2)o1)N1CCCC(F)(F)CC1 [compound 4776],12.5 µM
18,CC(C)(C)C1CCN(C(=O)Nc2nnc(-c3ccc(F)cc3)o2)CC1 [compound 4938],4.96 µM
19,O=C(Nc1nnc(-c2ccc(F)cc2)o1)N1CCCCCC1 [compound 4700],15.8 µM
20,CC1CCN(C(=O)Nc2nnc(-c3ccc(F)cc3)o2)CC1 [compound 4684],15.8 µM
21,Cc1nnc(NC(=O)c2ccc(Oc3ccccc3)nc2)o1 [compound 4468],≥ 100 µM

row,Compound,MIC
1,COCC1=CCN(C(=O)Nc2nnc(-c3ccc(F)cc3)o2)CC1 [compound 4843],25 µM
2,O=C(Nc1nnc(-c2ccc(F)cc2)o1)N1CCCc2ccccc2C1 [compound 4777],17.7 µM
3,O=C(Nc1nnc(-c2ccc(F)cc2)o1)N1CCC(C2COC2)CC1 [compound 4740],100 µM
4,CC1=CCN(C(=O)Nc2nnc(C3CCCCC3)o2)CC1 [compound 4805],25 µM
5,O=C(Nc1nnc(C2CCCCC2)o1)N1CC=C(C(F)(F)F)CC1 [compound 4806],12.5 µM
6,CC1=CCN(C(=O)Nc2nnc(-c3c(C)cc(F)cc3C)o2)CC1 [compound 5216],12.5 µM
7,O=C(Nc1nnc(-c2ccc(F)cc2)o1)N1CCc2ccccc2CC1 [compound 4936],6.25 µM
8,O=C(Nc1nnc(-c2ccc(F)cc2)o1)c1cnc(Oc2ccccc2)nc1 [compound 4314],6.25 µM
9,CCC1CCN(C(=O)Nc2nnc(-c3ccc(F)cc3)o2)CC1 [compound 4933],6.25 µM
10,O=C(Nc1nnc(-c2ccc(F)cc2)o1)N1CCC2CCCCC2C1 (centres unmarked) [compound 4698],8.84 µM
11,Cc1nc2c(s1)CN(C(=O)Nc1nnc(-c3ccc(F)cc3)o1)C2 [compound 4464],≥ 100 µM
12,O=C(Nc1nnc(-c2ccc(F)cc2)o1)N1CCC=CCC1 [compound 4935],12.5 µM
13,O=C(Nc1nnc(C2CCC2)o1)c1ccc(Oc2ccccc2)nc1 [compound 4469],12.5 µM
14,Cc1cc(F)cc(C)c1-c1nnc(NC(=O)N2CCc3ccccc3C2)o1 [compound 5202],7.02 µM
15,O=C(Nc1nnc(-c2ccc(F)cc2)o1)N1CCC(F)(F)C1 [compound 4930],19.8 µM
16,Cc1cncc(Oc2ccc(C(=O)Nc3nnc(-c4ccc(F)cc4)o3)cc2)n1 [compound 4290],11.1 µM
17,Cc1ccccc1-c1nnc(NC(=O)N2CCC(Cl)=C(Cl)C2)o1 [compound 5215],1.56 µM
18,CC1(C)CCN(C(=O)Nc2nnc(-c3ccc(F)cc3)o2)CC1 [compound 4685],12.5 µM
19,CN1CCN(C(=O)Nc2nnc(-c3ccc(F)cc3)o2)CC1=O [compound 4351],≥ 100 µM
20,CC1CC(C)CN(C(=O)Nc2nnc(-c3ccc(F)cc3)o2)C1 (centres unmarked) [compound 4768],6.25 µM
21,O=C(Nc1nnc(-c2ccc(F)cc2)o1)N1CCN(C(=O)c2ccco2)CC1 [compound 4201],28.1 µM

# Test system: not listed separately
# Experiment: Mammalian cell cytotoxicity
# Conditions: not given
row,Compound,CC50
1,O=C(Nc1nnc(-c2ccc(F)cc2)o1)N1CCN(c2ncccn2)CC1 [compound 4465],> 100 µM
2,COc1cccc(Oc2ccc(C(=O)Nc3nnc(-c4ccc(F)cc4)o3)cc2)c1 [compound 4309],> 100 µM
3,Cc1ccc(Oc2ccc(C(=O)Nc3nnc(-c4ccc(F)cc4)o3)cc2)cc1 [compound 4305],32 µM
4,CC(Oc1ccc(C(=O)Nc2nnc(-c3ccc(F)cc3)o2)cc1)c1ccccc1 (centres unmarked) [compound 4357],45 µM
5,Cc1ccccc1-c1nnc(NC(=O)c2ccc(Oc3ccccc3)nc2)o1 [compound 4498],> 100 µM
6,COC(=O)C1=CCN(C(=O)Nc2nnc(-c3ccc(F)cc3)o2)CC1 [compound 4348],> 100 µM

# Test system: not listed separately
# Experiment: Microsomal stability + NADPH
# Conditions: mouse liver microsomes, 0.5 hr at 37° C.
row,Compound,Microsomal Stability + NADPH % degraded
1,COc1cccc(Oc2ccc(C(=O)Nc3nnc(-c4ccc(F)cc4)o3)cc2)c1 [compound 4309],<30%
2,Cc1ccc(Oc2ccc(C(=O)Nc3nnc(-c4ccc(F)cc4)o3)cc2)cc1 [compound 4305],<30%

# Test system: not listed separately
# Experiment: Aqueous solubility, nephelometry
# Conditions: water, kinetic from dmso stock
row,Compound,solubility
1,O=C(Nc1nnc(-c2ccc(F)cc2)o1)N1CCN(c2ncccn2)CC1 [compound 4465],12.5 µM
2,COc1cccc(Oc2ccc(C(=O)Nc3nnc(-c4ccc(F)cc4)o3)cc2)c1 [compound 4309],6.25 µM
3,Cc1ccc(Oc2ccc(C(=O)Nc3nnc(-c4ccc(F)cc4)o3)cc2)cc1 [compound 4305],3.13 µM
4,CC(Oc1ccc(C(=O)Nc2nnc(-c3ccc(F)cc3)o2)cc1)c1ccccc1 (centres unmarked) [compound 4357],3.1 µM
5,CC(C)(C)COc1ccc(C(=O)Nc2nnc(-c3ccc(F)cc3)o2)cc1 [compound 4284],3.12 µM
6,COC(=O)C1=CCN(C(=O)Nc2nnc(-c3ccc(F)cc3)o2)CC1 [compound 4348],25 µM
